The subject of series [1] is BxPC3 cells. As to the kind of experiment: Endocytic pathway in tumor cells (endocytosis inhibitors). It counts as cell-based, human. Conditions: chlorpromazine 50 μM, genistein 200 μM, wortmannin 5 μM, cytochalasin D 5 μM; for inhibition rate on the endocytosis of LPGL in BxPC3 cells: serum-containing medium; for inhibition at 200 µM / inhibition at 5 µM / inhibition at 50 µM: Homo sapiens. As for the experimental part: BxPC3 cells (1×10^5 cells/mL, 1 mL) were cultured in 12-well plates for 24 h, and the culture medium was then replaced with 1 mL fresh serum-free medium. Chlorpromazine (50 μM, clathrin-mediated endocytosis inhibitor), genistein (200 μM, caveolae-mediated endocytosis inhibitor), wortmannin (5 μM, phosphatidylinositol 3-kinases-mediated macropinocytosis inhibitor), or cytochalasin D (5 μM, actin-polymerization inhibitor) was added to the medium for 2 h of incubation. Another group of BxPC3 cells without any endocytosis inhibitor treatment was cultured for 2 h as the control group. Next, the mixture of Cy5-labeled LPGL liposome (equivalent to fluorescent lipids of 60 μg/mL, 20 μL) and serum-containing medium or serum-free medium was respectively added into the plate, and subsequently treated with or without ultrasound stimulation (acoustic intensity: 2 W/cm^2, frequency: 3 MHz, duty cycle: 50%, duration time: 5 min). After incubation of 3 h, cells were washed, digested and collected into a centrifugal tube, and the mean fluorescence intensity was detected by flow cytometry.

In series [2] the test system is three-dimensional (3D) multicellular tumor spheroids of BxPC3. The series is described as follows: Cytotoxicity on 3D multicellular tumor spheroids (Alamar Blue). In kind it is cell-based, human. The settings on record: serum-containing medium, ultrasound stimulation, 72 h, equivalent to GEM 0~10 μM. As for the experimental part:
(§1) The cytotoxicity of the liposome was tested on the three-dimensional (3D) multicellular tumor spheroids of BxPC3 or Huh7. The tumor spheroids were established using the hanging drop method. The mixture of LPGL, PGL, LGL, GL or free gemcitabine (GEM) and serum-containing medium were respectively added into the wells containing three-dimensional (3D) multicellular tumor spheroids of BxPC3 or Huh7 at the final testing concentrations (equivalent to GEM: 0˜10 μM), and treated with ultrasound stimulation (acoustic intensity: 2 W/cm^2, frequency: 3 MHz, duty cycle: 50%, duration time: 5 min), then incubated for 72 h. Meanwhile, the LPL liposome with equimolar ratio to LPGL liposome was tested as a control. Afterward, the culture medium was replaced with a mixture of 90 μL fresh culture medium and 10 μL Alamar Blue Cell Viability Reagent, and was continuously incubated for 12 h. The sample plates were then detected using a plate reader at 530 nm excitation and 590 nm emission to obtain fluorescence intensity readouts. In addition, apoptosis induced by the liposome in spheroids were further determined by the TdT-mediated dUTP nick end labeling (TUNEL) assay, and the positive TUNEL-staining cells were examined by CLSM.
(Alamar Blue is a resazurin reagent that responds to reducing activity.)

In series [3] the test system is three-dimensional (3D) multicellular tumor spheroids of Huh7. The description is as above. Conditions: serum-containing medium, ultrasound stimulation, 72 h, equivalent to GEM 0~10 μM. It counts as cell-based, human. As for the experimental part:
as §1

Series [4] relates to 3D multicellular tumor spheroids of BxPC3. As to the kind of experiment: Morphology and apoptosis of tumor spheroids (light microscope, TUNEL staining). In kind it is cell-based, human. The settings on record: equivalent to GEM 0.1 μM, serum-containing medium, ultrasound stimulation, 72 h. As for the experimental part:
The method for inhibiting 3D multicellular tumor spheroids of BxPC3 with free GEM and different liposomes is as follows: the mixture of LPGL, PGL, LGL, GL liposome, free gemcitabine (GEM) or PBS and serum-containing medium was incubated with 3D multicellular tumor spheroids of BxPC3 at the final testing concentrations (equivalent to GEM: 0.1 μM), and treated with ultrasound stimulation (acoustic intensity: 2 W/cm^2, frequency: 3 MHz, duty cycle: 50%, duration time: 5 min), then incubated for 72 h, the morphology of 3D multicellular tumor spheroids of BxPC3 in different treatment group was observed using light microscope and TUNEL staining, scale bar=500 μm. […] (10E) The mean integrated optical density (IOD) of fluorescence in two inner layers of 75 μm and 100 μm (as shown in FIG. 10 D) in 3D multicellular tumor spheroids of BxPC3 was analyzed using Image-pro Plus 6.0 software to evaluate the penetration ability of liposome.
The cytotoxicity of the liposome was tested on the three-dimensional (3D) multicellular tumor spheroids of BxPC3 or Huh7. […] The sample plates were then detected using a plate reader at 530 nm excitation and 590 nm emission to obtain fluorescence intensity readouts. In addition, apoptosis induced by the liposome in spheroids were further determined by the TdT-mediated dUTP nick end labeling (TUNEL) assay, and the positive TUNEL-staining cells were examined by CLSM.

Series [5] relates to human-derived tumor xenograft of PDA. The series is described as follows: In vivo antitumor activity (PDA model). On the set-up: species or system BALB/c nude mice. As for the experimental part:
BALB/c nude mice bearing human-derived tumor xenograft of PDA in the subcutaneous region were selected and grouped into seven groups (n=6). Each group was intravenously injected with LPGL liposome dispersion (dose equivalent to GEM 10 mg/kg), PGL liposome dispersion (dose equivalent to GEM 10 mg/kg), LGL liposome dispersion (dose equivalent to GEM 10 mg/kg), GL liposome dispersion (dose equivalent to GEM 10 mg/kg), GEM PBS7.4 dispersion (dose equivalent to GEM 10 mg/kg), LPL liposome dispersion or PBS 7.4 buffer respectively every two days for a total of four times. The 16th day was the first time of intravenous injection administration. The tumor site of each group was treated with ultrasound stimulation (acoustic intensity: 2 W/cm^2, frequency: 3 MHz, duty cycle: 50%, duration time: 20 min) after post-injection. The width and length of the tumors and the bodyweight of mice were measured during the treatment. At the end of the experiment at 36 days, the blood was collected, then mice were euthanized, tumors were dissected and weighed. The therapeutic efficacy was evaluated by comparing tumor size in the experimental group and control group. The tumor inhibition rate=100%×(mean tumor weight of PBS group−mean tumor weight of experimental group)/mean tumor weight of PBS group. The dissected tumors were fixed with 4% neutral buffered paraformaldehyde and embedded in paraffin. Tissue sections of 5-μm thick were mounted onto glass slides and stained with hematoxylin-eosin (H&E), and then examined by light microscopy. The immunohistochemistry staining of Ki67 was tested to investigate the percentage of proliferous tumor cells positively stained in the examined field. Tissue sections were subjected to Ki67 staining using the Ki67-antibody Assay Kit according to the manufacturer's protocol. Apoptotic cells were also identified using TUNEL Apoptosis Assay Kit and examined using CLSM

For series [6], the system named is human-derived tumor xenograft of HCC. The series is described as follows: In vivo antitumor activity and toxicity (HCC model). Also on record: species or system BALB/c nude mice. As for the experimental part: The study of liposome and its characteristics and anti-tumor activity in Example 2 was the same as that in Example 1. The difference was that LPGL liposome and LGL liposome were prepared by replacing DSPE-PEG2000-RGD with DSPE-PEG2000-NGR. The DSPE-PEG2000-NGR refers to 1,2-distearoyl-sn-glycero-3-phosphoethanolamine-N-[methoxy (polyethylene glycol)-2000]-NGR targeting peptide, the amino acid sequence of NGR targeting peptide was Gly (glycine)-Gly (glycine)-Cys (cysteine)-Asn (asparagine)-Gly (glycine)-Arg (arginine)-Cys (cysteine) with the amino acid sequence GGCNGRC (SEQ ID NO: 2).
BALB/c nude mice bearing human-derived tumor xenograft of hepatocellular carcinoma (HCC) in the subcutaneous region were selected and grouped into six groups (n=9, wherein three mice of each group were selected to measure the accumulation content of gemcitabine triphosphate active metabolite (dFdCTP) in the tumor after 24 h of first intravenous injection). Same to the PDA model in the Example 1, after BALB/c nude mice subcutaneously bearing human-derived tumor xenograft of HCC were injected with free GEM PBS 7.4 buffer, GL liposome, NGR modified LGL liposome, PGL liposome, NGR modified LPGL liposome or PBS 7.4, the tumor site was treated with ultrasound stimulation (+US, acoustic intensity: 2 W/cm^2, frequency: 3 MHz, duty cycle: 50%, duration time: 20 min). At 24 h after firstly intravenous injection, the accumulation content of gemcitabine triphosphate active metabolite (dFdCTP) in the tumor was shown in FIG. 17B. As GEM could quickly be phosphorylated into its active metabolite of GEM triphosphate (dFdCTP) in tumor, so the dFdCTP was widely used as a quantitative index of GEM.
The tumor size and the bodyweight of mice in each group was shown in FIG. 17C, FIG. 17D, FIG. 17E and FIG. 17F. […] At the end of the 34-day experiment, the mice serum was sampled, and the content of alanine aminotransferase (ALT), aspartate aminotransferase (AST), creatinine (CRE) and blood urea nitrogen (BUN) in the serum was detected to evaluate the in vivo hepatic and renal toxicity (as shown in Table 4).

Setting [7] is: BXPC-3, serum-containing medium, with ultrasound stimulation, read-out: inhibition rate on the endocytosis of LPGL in BxPC3 cells.
[8] abbreviates: BXPC-3, serum-containing medium, without ultrasound stimulation, read-out: inhibition rate on the endocytosis of LPGL in BxPC3 cells.
The mark [9] stands for this setting: BXPC-3, serum-free medium, without ultrasound stimulation, read-out: inhibition rate on the endocytosis of LPGL liposome in BxPC3 cells.
[10] abbreviates: mice serum, end of the 34-day experiment, LGL and LPGL are NGR modified.

The results in this text go back to patent US20240094197A1, “Method for removing protein corona of the surface of nanometer particle” (ZHEJIANG UNIVERSITY, priority 2022, published 2024).

Like-named read-outs stand apart in the source and are kept apart here.

On to `C=C1[C@@H](C)[C@H]2[C@H](Cc3ccccc3)NC(=O)[C@]23[C@H](OC(C)=O)/C=C/[C@@](C)(O)C(=O)[C@@H](C)C/C=C/[C@H]3[C@@H]1O` [cytochalasin D], for which the “inhibition rate on the endocytosis of LPGL in BxPC3 cells” value came out at 17.0% in series [1] (with ultrasound stimulation) and 10.2% in series [1] (without ultrasound stimulation). Also, the “inhibition rate on the endocytosis of LPGL liposome in BxPC3 cells” value in series [1] (serum-free medium, without ultrasound stimulation) turned out to be 19.9%.
For `O=c1c(-c2ccc(O)cc2)coc2cc(O)cc(O)c12` [genistein], the figures for the inhibition at 200 µM in series [1] (setting [7]), in series [1] (setting [8]) and in series [1] (setting [9]) were 52.5%, 28.9% and 57.6%, respectively.
As to `Nc1ccn([C@@H]2O[C@H](CO)[C@@H](O)C2(F)F)c(=O)n1` [GEM, gemcitabine], in series [2], the “cytotoxicity against 3D multicellular tumor spheroids of BxPC3” value is “dose-dependent cytotoxicity”. Moreover, the “cytotoxicity against 3D multicellular tumor spheroids of Huh7” value in series [3] is given as “dose-dependent cytotoxicity”. Besides, in series [4], the “apoptotic cells in BxPC3 spheroids (TUNEL staining)” value is listed as “few apoptotic cells distributed around the spheroid's periphery” and the “morphology of BxPC3 spheroids (light microscope)” value was “no significant change in morphology”. The “side effects: body weight, white blood cell (WBC) and blood platelet” value in series [5] (during treatment / end of the 36-day experiment) is “distinct body weight loss, and hematological damage on sharp decrease of white blood cell (WBC) and blood platelet”. Besides, in series [5] (end of the 36-day experiment), the “H&E staining of excised tumors, vs LPL liposome and PBS” value was “much less densely populated cells”; the “distribution of apoptotic cells in tumor (TUNEL assay)” value is reported as “merely existed around the tumor periphery”. Besides, the “change of tumor volume” value in series [5] (i.v. every two days, four times, dose equivalent to GEM 10 mg/kg, ultrasound on tumor 20 min) was “firstly delayed, but then recovered to grow when stopping administration”. For the same molecule, the bodyweight of mice result in series [6] (during treatment) is recorded as “gradually decreased”. Also, the “content of AST, ALT, BUN and CRE relative to normal range” value in series [6] (mice serum, end of the 34-day experiment) is reported as “beyond the maximum of normal limit”. Besides, in series [6] (setting [10]), the ALT was 81.1 ± 10.5 U/L, the AST came to 218.6 ± 25.3 U/L, the BUN worked out at 47.6 ± 5.0 mg/dL and the CRE was 0.68 ± 0.17 mg/dL.
`COC[C@H]1OC(=O)c2coc3c2[C@@]1(C)C1=C(C3=O)[C@@H]2CCC(=O)[C@@]2(C)C[C@H]1OC(C)=O` [wortmannin]: the inhibition (usually the percentage by which the read-out fell short of the control) at 5 µM in series [1] (BXPC-3, read-out: inhibition rate on the endocytosis of LPGL in BxPC3 cells, serum-containing medium, with ultrasound stimulation) amounted to 24.8%; in series [1] (BXPC-3, read-out: inhibition rate on the endocytosis of LPGL in BxPC3 cells, serum-containing medium, without ultrasound stimulation) it was 23.5%; in series [1] (BXPC-3, read-out: inhibition rate on the endocytosis of LPGL liposome in BxPC3 cells, serum-free medium, without ultrasound stimulation) it was 13.4%.
As to `CN(C)CCCN1c2ccccc2Sc2ccc(Cl)cc21` [chlorpromazine], the inhibition at 50 µM in series [1] (setting [7]) is 24.4%; in series [1] (setting [8]), 35.9%; in series [1] (setting [9]), 21.1%.
